Experimental findings from US20230372244A1, “Methods of Preparing Cell-Derived Vesicles” (NATIONAL UNIVERSITY OF SINGAPORE, priority 2020, published 2023) are described below.

Where a name gives a salt, the structure may show the parent alone.

The subject of assay [1] is MCF-7 cells. In words: Clonogenic assay of MCF-7 cells with DOX and PEMF. The format is cell-based. The note with it: 20 nM DOX, low density of 100 cells per well. On the procedure: FIG. 13. […] (A) Schematic of PEMF and DOX treatment regime for DNA quantification. Cells were exposed to 3 mT for 1 h daily for 3 successive days. DOX (100 nM) was administered on the final day 1 h before the last PEMF exposure. Cellular DNA content was measured 24 h after the last PEMF exposure. (B) Bar chart of pooled data for Cyquant DNA content in fold change 24 h post-DOX and PEMF treatments. (C) Colony formation paradigm for MCF-7 cells treated with DOX and PEMFs. (D) MCF-7 colony formation in the presence of 10 and 20 nM DOX, with and without PEMF exposure as indicated. Cells were seeded at a low density of 100 cells per well. (E) Colony survival in 10 nM DOX under low-density conditions. […] (F) MCF-7 colony formation in the presence of 10 and 20 nM DOX, with and without PEMF exposure under high-density seeding of 1000 cells per well. […] (H) Absolute DCH2FDA-ROS fluorescence from MCF-7 cells. […]
In vitro clonogenic assay was performed using crystal violet staining (24). […] The mean survival factor (colony count) was determined as the number of surviving cells over the number of cells plated and normalized to the survival factor of the control group expressed as fold change. The colony size relative frequency was determined by binning colonies into several bins, according to their relative size from the smallest to the largest colonies after normalizing to the total number of cells.

For the next assay, the system named is MCF-7/TRPC1 cells. In words: DNA content and colony formation of TRPC1 overexpressing MCF-7 cells with DOX and PEMF. Type of assay: cell-based. Particulars: TRPC1 overexpression versus vector cells. The procedure:
FIG. 17. […] (A) PEMF and DOX treatment regime for MCF-7/TRPC1 cell DNA quantification. (B) DNA fold change relative to 0 mT vector cells. Statistical analysis was done using the two-sample t-test. (C) Colony formation after 10 days in the presence of 0 nM, 10 nM or 20 nM DOX, without PEMF exposure. Images of colony formation and the quantification of colony size frequency distribution normalized to the total number of colonies in the presence of 10 nM DOX for (D) vector and (E) MCF-7/TRPC1 cells or 20 nM DOX for (F) vector and (G) MCF-7/TRPC1 cells, concomitant with daily PEMF exposure. *, p<0.05, **, p<0.01 and ***, p<0.001 indicate the statistical difference between the respective 0 mT and 3 mT condition within the same bin. (H) PEMF-modulated proliferation of TRPC1-silenced MCF-7 cells 48 h post dsiRNA transfection. […]
(§1) For cell enumeration using trypan blue exclusion assay, MCF-7, MDA-MB-231, or MCF10A cells were seeded at 6000 cells/cm^2 per well of a 6-well plate. […] Cyquant stained DNA was measured using at 480/520 nm using Cytation 5 microplate reader (BIOTEK).
In vitro clonogenic assay was performed using crystal violet staining (24). […] The mean survival factor (colony count) was determined as the number of surviving cells over the number of cells plated and normalized to the survival factor of the control group expressed as fold change. […]

Assay [2] has as its system patient-derived tumor xenografts. In words: Patient-derived tumor xenografts in NSG mice, DOX and/or PEMF. Type of assay: in vivo. The note with it: 20 mg/kg DOX intravenously and/or PEMF 1 h weekly for 5 weeks.
Protocol: (A) Schematic of PEMF and DOX exposures regimes used on mice hosting patient-derived tumor xenografts. Implanted tumors were allowed to grow for 3 weeks before the initiation of DOX and/or PEMF treatments. Tumor volumes were measured each week while apoptotic cell determination was performed at the end of the study. Each data point represents the mean from 5 experimental runs derived from the tumors obtained from 5 patients, each of which was equally divided amongst the 5 treatment groups. (B) Changes in tumor volume (mm^3) for 5 weeks. (C) Representative scatter dot-plots showing cell population of dissociated tumors sorted based on annexin and propidium iodide staining. (D) Bar chart represents pooled data of apoptotic cell percentages analyzed using flow cytometry. N=5 mice, with *, p<0.05, **, p<0.01, and #p<0.0001. The error bars are expressed as the standard error of the mean.
The NSG mice were purchased from Jackson's laboratory and used at 8-10 weeks of age. Briefly, each female NSG mouse was implanted with a subcutaneous 60-day (0.36 mg) slow-release estradiol pellet (Innovative Research of America). Each patient tumor was equally divided into 5 chunks and implanted into the dorsal flank of 5 animals corresponding to the 5 different treatment groups. […] At the end of the study, tumor volume was measured and isolated for apoptotic cell determination. […]
Assay [3] relates to MCF-7 cells. In words: Cyquant DNA content of MCF-7 cells after DOX and PEMF. Type of assay: cell-based. The note with it: DOX 100 nM; 3 mT PEMF 1 h daily for 3 days. The procedure: FIG. 13. […] (A) Schematic of PEMF and DOX treatment regime for DNA quantification. Cells were exposed to 3 mT for 1 h daily for 3 successive days. DOX (100 nM) was administered on the final day 1 h before the last PEMF exposure. Cellular DNA content was measured 24 h after the last PEMF exposure. (B) Bar chart of pooled data for Cyquant DNA content in fold change 24 h post-DOX and PEMF treatments. (C) Colony formation paradigm for MCF-7 cells treated with DOX and PEMFs. (D) MCF-7 colony formation in the presence of 10 and 20 nM DOX, with and without PEMF exposure as indicated. Cells were seeded at a low density of 100 cells per well. (E) Colony survival in 10 nM DOX under low-density conditions. […] (F) MCF-7 colony formation in the presence of 10 and 20 nM DOX, with and without PEMF exposure under high-density seeding of 1000 cells per well. The images on the right are the zoom-in images of cells under the same treatment paradigm. […] (H) Absolute DCH2FDA-ROS fluorescence from MCF-7 cells. […]
as §1

The next assay deals with MCF-7 xenograft. In words: MCF-7 xenograft in mice, DOX and/or PEMF. Type of assay: in vivo. Particulars: weekly PEMF and DOX exposures.
The target of another assay is T1, TRPA1 (Mus musculus, UniProt Q8BLA8).
T1 construct: containing Fluo-4 loaded myoblast-derived CDVs from the same culture; endogenous in cells
T1 sequence (Q8BLA8 whole entry): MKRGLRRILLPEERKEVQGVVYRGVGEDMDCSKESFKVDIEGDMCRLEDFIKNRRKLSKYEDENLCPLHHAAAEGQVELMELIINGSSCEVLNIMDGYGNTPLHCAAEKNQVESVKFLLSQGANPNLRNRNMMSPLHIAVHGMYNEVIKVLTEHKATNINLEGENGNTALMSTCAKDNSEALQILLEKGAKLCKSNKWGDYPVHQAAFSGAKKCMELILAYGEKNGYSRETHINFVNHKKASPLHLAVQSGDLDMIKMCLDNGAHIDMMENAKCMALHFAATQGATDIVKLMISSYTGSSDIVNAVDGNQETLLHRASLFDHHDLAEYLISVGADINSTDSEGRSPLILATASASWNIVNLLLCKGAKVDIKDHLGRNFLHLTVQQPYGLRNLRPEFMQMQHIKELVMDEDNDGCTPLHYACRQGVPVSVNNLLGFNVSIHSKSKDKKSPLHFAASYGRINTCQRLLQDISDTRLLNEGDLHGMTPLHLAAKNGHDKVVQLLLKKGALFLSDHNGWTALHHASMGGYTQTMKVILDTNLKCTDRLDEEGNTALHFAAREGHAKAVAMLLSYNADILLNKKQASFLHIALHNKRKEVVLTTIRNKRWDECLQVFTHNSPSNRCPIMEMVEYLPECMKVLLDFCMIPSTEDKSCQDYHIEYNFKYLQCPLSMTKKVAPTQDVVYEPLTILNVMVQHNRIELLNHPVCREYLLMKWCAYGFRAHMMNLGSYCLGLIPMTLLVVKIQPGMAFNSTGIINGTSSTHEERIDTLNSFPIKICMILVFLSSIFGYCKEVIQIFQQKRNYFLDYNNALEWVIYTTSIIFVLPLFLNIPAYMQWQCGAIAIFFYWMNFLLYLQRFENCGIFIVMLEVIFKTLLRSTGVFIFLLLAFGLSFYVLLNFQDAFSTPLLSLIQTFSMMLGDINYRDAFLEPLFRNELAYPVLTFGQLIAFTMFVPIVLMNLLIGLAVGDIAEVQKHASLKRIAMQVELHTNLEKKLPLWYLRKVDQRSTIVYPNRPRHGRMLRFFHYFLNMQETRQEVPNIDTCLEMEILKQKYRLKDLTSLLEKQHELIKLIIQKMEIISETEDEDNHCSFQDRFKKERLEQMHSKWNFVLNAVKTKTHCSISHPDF
In words: TRP channel functional assessment of immobilized CDVs (menthol, Fluo-4 calcium signal). Particulars: Fluo-4 loaded myoblast-derived CDVs on microfluidic chip; versus CDVs not administered menthol. The format is biochemical, Murine. From the text: FIG. 1. Schematic depicting the tests applied to CDVs to ascertain 1) innate channel functionality and 2) recuperative potential for cellular respiratory and proliferative capacities. 1) Cell-free assays were comprised of examining specific TRP channel activation by menthol (TRPA1) or magnetic fields (TRPC1). 2) Cell-based assays entailed administering wild type CDVs to TRPC1-knockdown myoblasts followed by testing for recuperation of cellular proliferative and mitochondrial respiratory capacities.
FIG. 4. A) Schematics of the CDV immobilization 1), loading 2), and TRP channel functional assessment 3). […] Red fluorescence is Texas Red as part of the biochemical linker, the dotted line indicates the edge of the print. […] Data were simultaneously recorded from 3 parallel channels of the same microfluidic chip containing Fluo-4 loaded myoblast-derived CDVs from the same culture, 2 channels with menthol administration and one without (negative control). […] Representative calcium responses (Rate of Rise (ROR) normalized to starting value) from intact C2C12 myoblasts D) or CDVs E) derived from wild type C2C12 myoblasts (left) or C2C12 CRISPR/Cas9 knockdown myoblasts, 60 (middle), and 61 (right), in response to 10 min magnetic field exposure (1.5 mT) while in suspension immediately before reading. […]

Protocol for MCF-7 xenograft: (A) Schematic of weekly PEMF and DOX exposures on MCF-7 xenograft in mice. Implanted cells were allowed to grow for 3 weeks before the initiation of DOX and/or PEMF treatment. Apoptotic cell determination was performed at the end of the study. […] N=6 mice, with *, p<0.05, **, p 1137<0.01, and #, p<0.0001. The error bars are expressed as the standard error of the mean.
The NSG mice were purchased from Jackson's laboratory and used at 8-10 weeks of age. Briefly, each female NSG mouse was implanted with a subcutaneous 60-day (0.36 mg) slow-release estradiol pellet (Innovative Research of America). […] The tumors were allowed to grow for 3 weeks. For MCF-7, 1×10^6 cells were counted and mixed in a 40-60% ratio with Matrigel Growth Factor (Bio Laboratories, Cat No. 354230). The cells are injected subcutaneously into the dorsal flank of the animals corresponding to the different treatment groups. The animals were given 20 mg/kg DOX intravenously and/or PEMFs stimulation for 1 h weekly for 5 weeks. At the end of the study, tumor volume was measured and isolated for apoptotic cell determination.
For apoptotic cell determination, the tumors were dissociated to single cells using the MACS Tumor Dissociation Kit in combination with the gentleMACS Dissociator (Miltenyi Biotec) as according to the manufacturer's protocol. After dissociation, the cells were filtered through a 30 μm MACS SmartStrainer. […]

With `COc1cccc2c1C(=O)c1c(O)c3c(c(O)c1C2=O)C[C@@](O)(C(=O)CO)C[C@@H]3O[C@H]1C[C@H](N)[C@H](O)[C@H](C)O1` [DOX, Doxorubicin hydrochloride], in the assay with MCF-7 cells [1], the colony number entry is recorded as “too few to quantify accurately”. Further, the “sensitivity of MCF-7 cells to doxorubicin” value in the assay with MCF-7/TRPC1 cells is “TRPC1 overexpression sensitizes MCF-7 cells to doxorubicin”. Further, the tumor growth entry in assay [2] is given as “synergize with DOX to inhibit tumor growth in vivo”. For the same molecule, the “MCF-7 cell vulnerability to doxorubicin (DNA content)” value in the assay on MCF-7 cells [3] is given as “enhances MCF-7 cell vulnerability to doxorubicin”. Moreover, the MCF-7 tumor growth entry in the assay with MCF-7 xenograft is reported as “synergize with doxorubicin to inhibit MCF-7 tumor growth in vivo”.

Turning to `CC1CCC(C(C)C)C(O)C1` (stereo not drawn) [Menthol, menthol], the intra-CDV calcium concentration result at TRPA1 is listed as “increases in intra-CDV calcium concentration”.
